Literature values in patent US20060052322A1, “Combination treatment of cancer with elicitor of gene product expression and gene-product targeting agent” (INTROGEN THERAPEUTICS, INC., priority 2004, published 2006).
Where a name gives a salt, the structure may show the parent alone. Read-outs that look alike come from different tables or passages of the source. Starred links: 1 amine or outer side, 2 acyl side, 3 side chain; linkers in the order of their positions; H or OH if unused. Positions of bridges follow the written chain, without caps; N, C: chain ends. Non-standard residues stand in square brackets, D forms with d. Residues, ends and D or L forms follow the SMILES beside them. Chains are numbered I, II in the order given. Actinocin(9to1) = Cc1c2oc3c(C)ccc(C(=O)[*:1])c3nc-2c(C(=O)[*:2])c(N)c1=O; NMeV = CN[C@H](C(=O)O)C(C)C; Sar = CNCC(=O)O

Assays:
[1] = share of dose

CC[C@]1(O)C[C@@H]2CN(CCc3c([nH]c4ccccc34)[C@@](C(=O)OC)(c3cc4c(cc3OC)N(C)[C@H]3[C@@](O)(C(=O)OC)[C@H](OC(C)=O)[C@]5(CC)C=CCN6CC[C@]43[C@@H]65)C2)C1 [Vinblastine]
excreted/recovered in the urine [1]: Approximately 15%

Cc1c2oc3c(C)ccc(C(=O)N[C@@H]4C(=O)N[C@H](C(C)C)C(=O)N5CCC[C@H]5C(=O)N(C)CC(=O)N(C)[C@@H](C(C)C)C(=O)O[C@@H]4C)c3nc-2c(C(=O)N[C@@H]2C(=O)N[C@H](C(C)C)C(=O)N3CCC[C@H]3C(=O)N(C)CC(=O)N(C)[C@@H](C(C)C)C(=O)O[C@@H]2C)c(N)c1=O [Actinomycin D] (I: T[dV]P[Sar][NMeV] / II: T[dV]P[Sar][NMeV]; ester I:1-I:C, II:1-II:C; linker I:N-II:N via Actinocin(9to1))
excreted/recovered in the urine [1]: 10%
secreted/excreted into the bile [1]: Half

O=NN(CCCl)C(=O)NC1CCCCC1 [Lomustine, 1-(2-chloro-ethyl)-3-cyclohexyl-1 nitrosourea]
solubility (absolute alcohol): 70 mg per ml
solubility (water): < 0.05 mg per ml

CO[C@@]12[C@H](COC(N)=O)C3=C(C(=O)C(C)=C(N)C3=O)N1C[C@@H]1N[C@@H]12 [Mitomycin]
excreted/recovered in the urine [1]: Approximately 10%

CC[C@@]1(O)C(=O)OCc2c1cc1n(c2=O)Cc2cc3ccccc3nc2-1 [Camptothecin]
storage stability (2-8° C., dry, airtight, light-resistant environment): at least two years

COc1cccc2c1C(=O)c1c(O)c3c(c(O)c1C2=O)C[C@@](O)(C(C)=O)C[C@@H]3O[C@H]1C[C@H](N)[C@H](O)[C@H](C)O1 [Daunorubicin, 5,12-Naphthacenedione, (8S-cis)-8-acetyl-10-[(3-amino-2,3,6-trideoxy-a-L-lyxo-hexanopyranosyl)oxy]-7,8,9,10-tetrahydro-6,8,11-trihydroxy-10-methoxy-, hydrochloride]
secreted/excreted into the bile [1]: ~40%

COc1cccc2c1C(=O)c1c(O)c3c(c(O)c1C2=O)C[C@@](O)(C(=O)CO)C[C@@H]3O[C@H]1C[C@H](N)[C@H](O)[C@H](C)O1 [Doxorubicin, 5,12-Naphthacenedione, (8s-cis)-10-[(3-amino-2,3,6-trideoxy-a-L-lyxo-hexopyranosyl)oxy]-7,8,9,10-tetrahydro-6,8,11-trihydroxy-8-(hydroxyacetyl)-1-methoxy-hydrochloride]
excreted/recovered in the urine [1]: a few percent
